According to patent US20100062441A1, “C-MET MUTATIONS AND USES THEREOF” (priority 2007, published 2010):

Experiments:
Format in all cases: cell-based, human
[1] = tested on: MM-AN melanoma cells (minimal levels of c-MET); experiment: Cell growth analysis (cell counting)
Method: For measuring the effect of SU11274 on growth of melanoma cells, MM-AN, MU, PM-WK, MM-RU, MM-MC and RPM-EP cells were plated at 6×10^4 cells in 60 mm dishes in MEM with 10% serum. After 24 hrs different concentrations of SU11274 were added and after 96 hrs cells were trypsinized and counted in a cell counter (Beckman Coulter). Each data point was repeated in triplicate.

[2] = tested on: MM-AN cells; experiment: Apoptosis by propidium iodide FACS (sub G0/G1)
Method: MM-AN, MU, PM-WK, MM-RU, MM-MC, MM-LH and RPM-EP melanoma cells were grown in MEM (Cellgro, Hernon, Va.) with 10% FBS (Gemini Bioproducts, Woodland, Calif.). Triplicate melanoma cell cultures were grown in MEM with 10% FBS and treated with a final concentration of 5-10 μM of SU11274 or an equal volume of diluent (DMSO) as a control for 96 hrs. Cells were collected, stained with propidium iodide and analyzed with a Becton Dickinson FACS Scan and Cell Quest software.
SU11274, which is a highly specific inhibitor of c-Met, was tested on the six melanoma cell lines. […] By 96 hrs between 12 to 58% of cells in different melanoma cell lines appeared in the sub G0/G1 region of the FACS profile indicating apoptosis.

[3] = tested on: MU melanoma cells; experiment: Differentiation of melanoma cells (morphology); conditions: 72 hrs with 5 μM SU11274
Method: (§1) Thus SU11274 could induce a differentiated phenotype in a wide variety of melanoma cells melanized, amelanotic, less and more differentiated melanoma cells.
The effect of si RNA against c-Met was also studied on the proliferation and differentiation of MU melanoma cells. […] SU11274 at 5 μM and 10 μM inhibited the growth of melanoma cells by 72% and 88% respectively. The inhibitory effect of SU11274 was more pronounced than si RNA since SU11274 is a potent and selective inhibitor of c-Met activity and function. […] Similar to SU11274 c-Met Si RNA 12 hrs after transfection induced an increase in MITF (4 fold) and several of the melanocyte differentiation antigens tyrosinase (4-fold), gp-100 (2-fold) and MART-1 (2-fold) which have been targets for immunotherapy. The increase in the level of various differentiation proteins was determined by densiometric anaylsis after treatment with c-Met si RNA.

[4] = tested on: MM-MC melanoma cells; experiment: Differentiation of melanoma cells (morphology); conditions: 72 hrs with 5 μM SU11274
Description: as §1

[5] = tested on: MM-RU melanoma cells; experiment: Differentiation of melanoma cells (morphology); conditions: 72 hrs with 5 μM SU11274
Description: as §1

[6] = tested on: reactive oxygen species (ROS) in MU melanoma cells; experiment: Reactive oxygen species measurement by DHE immunofluorescence; conditions: 5 μM SU11274 for 12 hrs; HGF 40 ng/ml
Method: 5×10^4 MU melanoma cells were plated in 35 mm petri dishes. After 24 hrs MU Melanoma cells were kept in serum free media containing 0.5% BSA with and without 5 μM SU11274 for 12 hrs. Cells were treated with 40 ng/ml HGF for 7.5 min, then treated with DHE 10 μM (molecular probes Inc, Eugene, Oreg.) for 30 min, after which they were visualized under a fluorescent Olympus microscope IX81, 20× objective, ND3 and Rhodamine filter sets. Fluorescence was then quantified using Image J and graphed.
The endogenous levels of reactive oxygen species (ROS) was also analyzed in MU melanoma cells with and without HGF treatment using DHE by fluorescence microscopy. DHE is a redox sensitive probe that has widely been used to detect intracellular superoxide anion. The relative levels of ROS were increased in response to HGF by 47%, and SU11274 decreased the ROS response to HGF to 3%.

IC50 of MM-AN relative to cell lines with abundant c-Met [1]: 2 fold | IC50 ([1]; Homo sapiens, MM-AN, 96 hrs): 5 µM
Structure (SMILES): Cc1[nH]c(/C=C2\C(=O)Nc3ccc(S(=O)(=O)N(C)c4cccc(Cl)c4)cc32)c(C)c1C(=O)N1CCN(C)CC1 [SU11274, (3Z)-N-(3-chlorophenyl)-3-({3,5-dimethyl-4-[(4-methylpiperazin-1-yl)carbonyl]-1H-pyrrol-2-yl}methylene)-N-methyl-2-oxo-2,3-dihydro-1H-indole-5-sulfonamide]
apoptosis [2]: No apoptosis could be detected | change in morphology / differentiated phenotype [3]: became very dendritic and differentiated | change in morphology / differentiated phenotype [4]: became bipolar, tripolar or multipolar | change in morphology / differentiated phenotype [5]: became bipolar, tripolar or multipolar | ROS response to HGF [6]: 3%
